# Assay results taken from patent US6495525B1, “VLA-4 inhibitor: oMePUPA-V” (Biogen, Inc., priority 1998, dated 2002).
# Assays:
# [1] = test system: sRBC-induced DTH model in mice; assay: sRBC-induced delayed type hypersensitivity, footpad swelling; assay type: in vivo; conditions: 20 mg/kg enterally
# Procedure: Specific pathogen-free female Balb/c mice, aged 8-10 weeks, from Jackson Labs were used for all experiments. The animals were fed food and water ad libitum. Sheep red blood cells (sRBC) in Alsever's solution from the same sheep were obtained weekly from Charles River Pharm. Services (Southbridge, Mass.). The sRBC were pelleted by centrifugation at 1000 g for 10 minutes at 4° C. and any visible buffy coat removed. The cells were then washed in saline. The cell pellet was resuspended in saline and counted using a hemocytometer. The cells were diluted in phosphate buffered saline (PBS) to 2×10^8 sRBC per mL. On Day 0, mice were sensitized by a s.c. injection of 2×10^7 sRBC in 100 μL PBS. On Day 5, sRBC were prepared as above, but diluted in PBS to a final concentration of 4×10^9 sRBC per ml. Of this preparation, 25 μL was injected s.c. into the right rear footpad.
# For enteral administration of compound, oMePUPA-V (Lot #2770-029) was formulated in a vehicle of 60% PEG 400 in 0.02M TRIS to a stock concentration of 5 mg/mL. […]
# Swelling of unchallenged control (left) and challenged (right) rear footpads was measured using a tension caliper from Mitutoyo (Model #304-196, Dyer, Lancaster, Pa.) at 20 hours post-footpad challenge. The data are presented as the change in footpad thickness, determined by subtracting the left hind paw thickness from the right hind paw thickness. […]
# [2] = biological target: T1, α4β7 (Homo sapiens, UniProt P13612+P26010); assay: JY cell adhesion to CS1/BSA conjugate; assay type: cell-based; conditions: Mn+2
# T1 construct: endogenous in cells; host or cells: JY cells
# T1 sequence (P13612 34-1032): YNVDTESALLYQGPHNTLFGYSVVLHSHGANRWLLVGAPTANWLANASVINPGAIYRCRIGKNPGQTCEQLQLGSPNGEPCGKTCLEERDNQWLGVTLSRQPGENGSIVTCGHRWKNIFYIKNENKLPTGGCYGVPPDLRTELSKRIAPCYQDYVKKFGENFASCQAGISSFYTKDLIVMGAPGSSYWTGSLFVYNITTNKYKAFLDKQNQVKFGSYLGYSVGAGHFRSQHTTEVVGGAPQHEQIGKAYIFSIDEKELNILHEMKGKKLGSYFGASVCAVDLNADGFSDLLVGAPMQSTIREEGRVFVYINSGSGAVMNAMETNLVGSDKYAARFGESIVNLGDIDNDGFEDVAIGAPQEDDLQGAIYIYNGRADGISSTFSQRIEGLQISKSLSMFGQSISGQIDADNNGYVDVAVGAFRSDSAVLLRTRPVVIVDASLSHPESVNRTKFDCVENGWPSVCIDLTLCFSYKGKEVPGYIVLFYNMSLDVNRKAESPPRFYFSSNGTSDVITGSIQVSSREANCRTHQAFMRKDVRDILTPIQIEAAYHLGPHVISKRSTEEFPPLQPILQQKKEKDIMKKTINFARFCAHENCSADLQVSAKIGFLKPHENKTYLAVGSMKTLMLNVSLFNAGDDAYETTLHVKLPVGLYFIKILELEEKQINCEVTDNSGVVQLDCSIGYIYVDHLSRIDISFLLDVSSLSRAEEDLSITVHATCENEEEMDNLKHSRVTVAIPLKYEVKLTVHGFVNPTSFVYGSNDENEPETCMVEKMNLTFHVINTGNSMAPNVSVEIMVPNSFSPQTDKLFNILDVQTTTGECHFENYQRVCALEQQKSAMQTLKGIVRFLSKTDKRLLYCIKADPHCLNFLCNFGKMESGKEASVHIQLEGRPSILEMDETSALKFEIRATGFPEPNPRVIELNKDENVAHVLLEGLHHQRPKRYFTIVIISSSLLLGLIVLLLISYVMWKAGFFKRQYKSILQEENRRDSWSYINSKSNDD
# T1 sequence (P26010 20-798): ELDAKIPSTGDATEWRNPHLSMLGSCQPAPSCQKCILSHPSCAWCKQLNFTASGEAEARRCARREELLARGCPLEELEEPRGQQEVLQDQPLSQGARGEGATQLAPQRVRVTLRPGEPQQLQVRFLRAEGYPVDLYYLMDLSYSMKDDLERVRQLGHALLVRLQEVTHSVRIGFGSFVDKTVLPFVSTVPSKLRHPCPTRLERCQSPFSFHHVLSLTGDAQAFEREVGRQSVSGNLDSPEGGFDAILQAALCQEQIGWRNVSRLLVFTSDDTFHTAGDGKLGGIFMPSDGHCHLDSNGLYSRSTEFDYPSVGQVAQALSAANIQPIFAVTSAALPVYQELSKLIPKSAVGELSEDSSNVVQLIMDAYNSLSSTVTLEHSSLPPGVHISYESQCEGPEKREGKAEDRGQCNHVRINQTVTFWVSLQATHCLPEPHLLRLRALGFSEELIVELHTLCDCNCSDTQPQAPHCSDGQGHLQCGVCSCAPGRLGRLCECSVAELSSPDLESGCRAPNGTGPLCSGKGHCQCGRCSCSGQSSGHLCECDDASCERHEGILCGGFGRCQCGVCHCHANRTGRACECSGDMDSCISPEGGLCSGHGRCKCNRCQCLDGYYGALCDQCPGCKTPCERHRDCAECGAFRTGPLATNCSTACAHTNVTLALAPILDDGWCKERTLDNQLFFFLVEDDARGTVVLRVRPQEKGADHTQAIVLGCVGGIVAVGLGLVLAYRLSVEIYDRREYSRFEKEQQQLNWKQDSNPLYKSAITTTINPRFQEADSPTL
# Procedure: Binding to α4β7 was assessed on JY cells in the presence of Mn^+2. In the binding assay, VCAM-Ig and oMePUPA-V compete for binding to α4β7 on JY cells (See section 4.1.1 for assay protocol). In the cell adhesion assay, oMePUPA-V was tested for its ability to block JY (α4β7) cell binding to CS1/BSA conjugate
structure (smiles),measurement,setting,value
Cc1ccccc1NC(=O)Nc1ccc(CC(=O)N2CCC[C@H]2C(=O)N[C@H](C)CC(=O)O)cc1 [oMePUPA-V],effect on footpad swelling (in words),[1],without effect
same,"inhibition, JY (α4β7) CS1/BSA adhesion",[2]; @ 100 μM,no inhibition @
same,blocking of α4β7 binding to CS1/BSA (in words),[2]; JY cells,does not block
